Results as given in the supplement of paper PMC10307832.

How the values were obtained:
Assay in all cases: relative viability (nuclei count vs DMSO), 5 days (fraction); higher = more cells survive
NCI-H2342 = tested on: NCI-H2342
Summary of the method: (§1)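 One day after seeding in 1536-well plates, lung cancer cell lines were dosed by pin tool. Dosing was either single-drug or a fixed anchor-drug dose plus five library-drug doses (not always all listed) in √10 steps. After 5 days, nuclei were stained in one fix-and-stain step and counted on 4× images, and relative viability is the nuclei count of treated wells over that of vehicle wells, given as the median of duplicate plates.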

HOP-62 = tested on: HOP-62
Summary of the method: as §1

NCI-H23 = tested on: NCI-H23
Summary of the method: as §1

NCI-H460 = tested on: NCI-H460
Summary of the method: as §1

201T = tested on: 201T
Summary of the method: as §1

COR-L23 = tested on: COR-L23
Summary of the method: as §1

LC-2-ad = tested on: LC-2-ad
Summary of the method: as §1

NCI-H2087 = tested on: NCI-H2087
Summary of the method: as §1

NCI-H322M = tested on: NCI-H322M
Summary of the method: as §1

NCI-H1944 = tested on: NCI-H1944
Summary of the method: as §1

NCI-H2009 = tested on: NCI-H2009
Summary of the method: as §1

PC-3 [JPC-3] = tested on: PC-3 [JPC-3]
Summary of the method: as §1

ChaGo-K-1 = tested on: ChaGo-K-1
Summary of the method: as §1

NCI-H727 = tested on: NCI-H727
Summary of the method: as §1

NCI-H1651 = tested on: NCI-H1651
Summary of the method: as §1

NCI-H2126 = tested on: NCI-H2126
Summary of the method: as §1

NCI-H596 = tested on: NCI-H596
Summary of the method: as §1

NCI-H1355 = tested on: NCI-H1355
Summary of the method: as §1

NCI-H1666 = tested on: NCI-H1666
Summary of the method: as §1

ABC-1 = tested on: ABC-1
Summary of the method: as §1

SW 1573 = tested on: SW 1573
Summary of the method: as §1

NCI-H661 = tested on: NCI-H661
Summary of the method: as §1

With `C=C1C(=O)O[C@@H](CCCCCCCC)[C@@H]1C(=O)O` [C-75] + Nc1ncn([C@H]2C[C@H](O)[C@@H](CO)O2)c(=O)n1 [Decitabine] (partner 2 µM) the relative viability (NCI-H2342; first compound 0.08 µM) was 0.749, the relative viability (NCI-H2342; first compound 0.253 µM) was 0.785 and the relative viability (NCI-H2342; first compound 0.8 µM) was 0.667. For the same molecule, the relative viability (NCI-H2342; first compound 2.53 µM) was 0.57, the relative viability (NCI-H2342; first compound 8 µM) was 0.722 and the relative viability (HOP-62; first compound 0.08 µM) was 0.22. It also gave a relative viability (HOP-62; first compound 0.253 µM) of 0.217, a relative viability (HOP-62; first compound 0.8 µM) of 0.218 and a relative viability (HOP-62; first compound 2.53 µM) of 0.23. The relative viability (HOP-62; first compound 8 µM) was 0.161, the relative viability (NCI-H23; first compound 0.08 µM) was 0.307 and the relative viability (NCI-H23; first compound 0.253 µM) was 0.334. It also gave a relative viability (NCI-H23; first compound 0.8 µM) of 0.308, a relative viability (NCI-H23; first compound 2.53 µM) of 0.249 and a relative viability (NCI-H23; first compound 8 µM) of 0.247. For the same molecule, the relative viability (NCI-H460; first compound 0.08 µM) was 0.469, the relative viability (NCI-H460; first compound 0.253 µM) was 0.454 and the relative viability (NCI-H460; first compound 0.8 µM) was 0.46. It also gave a relative viability (NCI-H460; first compound 2.53 µM) of 0.198, a relative viability (NCI-H460; first compound 8 µM) of 0.492 and a relative viability (201T; first compound 0.08 µM) of 0.844. For the same molecule, the relative viability (201T; first compound 0.253 µM) was 0.938, the relative viability (201T; first compound 0.8 µM) was 0.842 and the relative viability (201T; first compound 2.53 µM) was 0.627. For the same molecule, the relative viability (201T; first compound 8 µM) was 0.813, the relative viability (COR-L23; first compound 0.08 µM) was 0.483 and the relative viability (COR-L23; first compound 0.253 µM) was 0.486. The relative viability (COR-L23; first compound 0.8 µM) was 0.415, the relative viability (COR-L23; first compound 2.53 µM) was 0.459 and the relative viability (COR-L23; first compound 8 µM) was 0.396. The relative viability (LC-2-ad; first compound 0.08 µM) was 0.785, the relative viability (LC-2-ad; first compound 0.253 µM) was 0.809 and the relative viability (LC-2-ad; first compound 0.8 µM) was 0.755. For the same molecule, the relative viability (LC-2-ad; first compound 2.53 µM) was 0.771, the relative viability (LC-2-ad; first compound 8 µM) was 0.837 and the relative viability (NCI-H2087; first compound 0.08 µM) was 0.281. The relative viability (NCI-H2087; first compound 0.253 µM) was 0.269, the relative viability (NCI-H2087; first compound 0.8 µM) was 0.35 and the relative viability (NCI-H2087; first compound 2.53 µM) was 0.217. It also gave a relative viability (NCI-H2087; first compound 8 µM) of 0.231, a relative viability (NCI-H322M; first compound 0.08 µM) of 0.693 and a relative viability (NCI-H322M; first compound 0.253 µM) of 0.782. For the same molecule, the relative viability (NCI-H322M; first compound 0.8 µM) was 0.604, the relative viability (NCI-H322M; first compound 8 µM) was 0.66 and the relative viability (NCI-H1944; first compound 0.08 µM) was 0.423. The relative viability (NCI-H1944; first compound 0.253 µM) was 0.471, the relative viability (NCI-H1944; first compound 0.8 µM) was 0.35 and the relative viability (NCI-H1944; first compound 2.53 µM) was 0.368. The relative viability (NCI-H1944; first compound 8 µM) was 0.461, the relative viability (NCI-H2009; first compound 0.08 µM) was 0.37 and the relative viability (NCI-H2009; first compound 0.253 µM) was 0.393. For the same molecule, the relative viability (NCI-H2009; first compound 0.8 µM) was 0.327, the relative viability (NCI-H2009; first compound 2.53 µM) was 0.314 and the relative viability (NCI-H2009; first compound 8 µM) was 0.338. It also gave a relative viability (PC-3 [JPC-3]; first compound 0.08 µM) of 0.78, a relative viability (PC-3 [JPC-3]; first compound 0.253 µM) of 0.798 and a relative viability (PC-3 [JPC-3]; first compound 0.8 µM) of 0.782. For the same molecule, the relative viability (PC-3 [JPC-3]; first compound 2.53 µM) was 0.793, the relative viability (PC-3 [JPC-3]; first compound 8 µM) was 0.91 and the relative viability (ChaGo-K-1; first compound 0.08 µM) was 0.505. For the same molecule, the relative viability (ChaGo-K-1; first compound 0.253 µM) was 0.504, the relative viability (ChaGo-K-1; first compound 0.8 µM) was 0.503 and the relative viability (ChaGo-K-1; first compound 2.53 µM) was 0.423. For the same molecule, the relative viability (ChaGo-K-1; first compound 8 µM) was 0.552, the relative viability (NCI-H727; first compound 0.08 µM) was 0.887 and the relative viability (NCI-H727; first compound 0.253 µM) was 0.955. It also gave a relative viability (NCI-H727; first compound 0.8 µM) of 0.807, a relative viability (NCI-H727; first compound 2.53 µM) of 0.767 and a relative viability (NCI-H727; first compound 8 µM) of 0.873. It also gave a relative viability (NCI-H1651; first compound 0.08 µM) of 0.565, a relative viability (NCI-H1651; first compound 0.253 µM) of 0.685 and a relative viability (NCI-H1651; first compound 0.8 µM) of 0.559. It also gave a relative viability (NCI-H1651; first compound 2.53 µM) of 0.381, a relative viability (NCI-H1651; first compound 8 µM) of 0.599 and a relative viability (NCI-H2126; first compound 0.08 µM) of 0.598. The relative viability (NCI-H2126; first compound 0.253 µM) was 0.617, the relative viability (NCI-H2126; first compound 0.8 µM) was 0.609 and the relative viability (NCI-H2126; first compound 2.53 µM) was 0.561. For the same molecule, the relative viability (NCI-H2126; first compound 8 µM) was 0.534, the relative viability (NCI-H596; first compound 0.08 µM) was 0.943 and the relative viability (NCI-H596; first compound 0.253 µM) was 1.16. It also gave a relative viability (NCI-H596; first compound 0.8 µM) of 0.953, a relative viability (NCI-H596; first compound 2.53 µM) of 1.07 and a relative viability (NCI-H596; first compound 8 µM) of 0.96. For the same molecule, the relative viability (NCI-H1355; first compound 0.08 µM) was 0.333, the relative viability (NCI-H1355; first compound 0.253 µM) was 0.374 and the relative viability (NCI-H1355; first compound 0.8 µM) was 0.36. The relative viability (NCI-H1355; first compound 2.53 µM) was 0.324, the relative viability (NCI-H1355; first compound 8 µM) was 0.355 and the relative viability (NCI-H1666; first compound 0.08 µM) was 0.741. For the same molecule, the relative viability (NCI-H1666; first compound 0.253 µM) was 0.786, the relative viability (NCI-H1666; first compound 0.8 µM) was 0.709 and the relative viability (NCI-H1666; first compound 2.53 µM) was 0.638. It also gave a relative viability (NCI-H1666; first compound 8 µM) of 0.678, a relative viability (ABC-1; first compound 0.08 µM) of 1.03 and a relative viability (ABC-1; first compound 0.253 µM) of 1.18. For the same molecule, the relative viability (ABC-1; first compound 0.8 µM) was 1.08, the relative viability (ABC-1; first compound 2.53 µM) was 0.72 and the relative viability (ABC-1; first compound 8 µM) was 0.81. It also gave a relative viability (SW 1573; first compound 0.08 µM) of 0.464, a relative viability (SW 1573; first compound 0.253 µM) of 0.51 and a relative viability (SW 1573; first compound 0.8 µM) of 0.434. For the same molecule, the relative viability (SW 1573; first compound 2.53 µM) was 0.385, the relative viability (SW 1573; first compound 8 µM) was 0.351 and the relative viability (NCI-H661; first compound 0.08 µM) was 0.545. It also gave a relative viability (NCI-H661; first compound 0.253 µM) of 0.54, a relative viability (NCI-H661; first compound 0.8 µM) of 0.519 and a relative viability (NCI-H661; first compound 2.53 µM) of 0.41. For the same molecule, the relative viability (NCI-H661; first compound 8 µM) was 0.448.
